The values that follow come from patent US8129557B2, “Phosphonic acid diester derivative and method for producing thereof” (priority 2005, dated 2012).

The target in data set [1] is T1, E-coli GGT (Escherichia coli, UniProt P18956).
T1 construct: was used as a purified enzyme of E-coli GGT; made in house
T1 sequence (P18956 26-390 limits assumed): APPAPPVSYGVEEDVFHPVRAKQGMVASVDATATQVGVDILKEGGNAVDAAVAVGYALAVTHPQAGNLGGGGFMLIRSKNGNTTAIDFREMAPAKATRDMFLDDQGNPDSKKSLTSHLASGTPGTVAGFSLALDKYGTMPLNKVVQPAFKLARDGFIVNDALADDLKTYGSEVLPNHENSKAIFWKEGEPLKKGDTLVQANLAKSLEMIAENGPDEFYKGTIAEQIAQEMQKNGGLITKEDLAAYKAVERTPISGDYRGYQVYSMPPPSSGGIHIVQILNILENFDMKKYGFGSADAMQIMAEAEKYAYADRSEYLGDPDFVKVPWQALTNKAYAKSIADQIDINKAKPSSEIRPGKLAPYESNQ
T1 sequence (P18956 391-580 limits assumed): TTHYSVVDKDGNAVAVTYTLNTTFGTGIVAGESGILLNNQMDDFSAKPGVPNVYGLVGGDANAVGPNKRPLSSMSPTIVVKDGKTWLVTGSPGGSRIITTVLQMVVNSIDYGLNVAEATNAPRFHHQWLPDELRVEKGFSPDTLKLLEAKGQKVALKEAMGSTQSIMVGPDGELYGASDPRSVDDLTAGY
Kind of data set: Second-order rate constant kon of E-coli GGT inactivation (continuous or discontinuous assay). Conditions: second-order rate constant for enzyme inactivation; pH 5.5, 25° C. Type of data set: biochemical, Escherichia coli K-12. The text has this:
(§1) Purified enzyme of E-coli GGT and crude enzyme of human GGT were employed as GGT samples for an inhibition experiment. The enzyme whose physicochemical properties are described in the Document (Hideyuki Suzuki, Hidehiko Kumagai, Tatsurokukro Tochikura “gamma-Glutamyltranspeptidase from Escherichia coli K-12: Purification and Properties” Journal of Bacteriology, December 1986, Vol. 168, No. 3, p. 1325-1331) was used as a purified enzyme of E-coli GGT. Enzyme [HC-GTP (product number), 603AA (lot number)] manufactured by Asahi Kasei Co., Ltd. was used as a crude enzyme of human GGT. The crude enzyme of human GGT contained a large amount of bovine serum albumin (BSA) to stabilize the enzyme, and the GGT concentration was 1% or lower.
In the hydrolytic assay of E. coli GGT, 10 μL of a […] enzyme solution was added to a 100 mM succinic acid-sodium hydroxide buffer solution (pH 5.5) in a total volume of 1 mL containing 100 μL of 2 μM substrate aqueous solution. The product, 7-amino-4-methylcoumarin (AMC), released along with the enzyme reaction was traced continuously at 25° C. using a fluorospectrophotometer F-2000 manufactured by Hitachi Ltd. (excitation wavelength: 350 nm, emission wavelength: 440 nm). The AMC concentration was separately measured by forming a calibration curve showing the relation of the fluorescence intensity (F) and the concentration (C) using standard solutions and was calculated from the relational expression (1) of the fluorescence intensity alteration (ΔF) and concentration alteration (ΔC).
(§2) Next, a second-order rate constant for enzyme inactivation kon was measured by either a continuous assay or a discontinuous assay. Both of the continuous and discontinuous assay for measuring inhibitory activity to GGT were carried out under a pseudo-first-order reaction condition.
(§3) In the continuous assay, while the temperature was kept at 25° C., the 100 mM succinic acid-sodium hydroxide buffer solutions (pH 5.5) containing an inhibitor in various concentrations and the substrate were preincubated for equilibrium. Herein, 0.2 μM of the substrate was used for the case of E-coli GGT and 0.4 μM of the substrate was used for the case of human GGT. Thereafter, the enzyme solution of the E-coli GGT was added in a manner that the final concentration became 0.04 nM and also the human GGT crude enzyme solution was added in a manner that the final concentration became 5 μg/mL. Accordingly, the reaction was started and the release of AMC (increase of the fluorescence intensity) was continuously traced for 10 minutes.
(§4) The fluorescence intensity data obtained from the respective curves was applied to the following pseudo-first-order rate equation (2) and the observed pseudo-first-order rate constant for enzyme inactivation (kobs) was calculated by nonlinear regression analysis [Stein, R. L. et al. Biochemistry 26, 2682-2689 (1987)].
(§5) [Equation 2] [P]=[P]∞[1−exp(−kobst)] (2)
(§6) When the kobs was plotted against to the inhibitor concentration ([I]), a linear relation was obtained until the maximum extent of the experimentally possible inhibitor concentration. Therefore, the second-order rate constant for enzyme inactivation kon was calculated using the following equation (3) deduced from the kinetic mechanism.
(§7) [drawing 37] [Equation 3] kobs=kon[I]/(1+[S]/Km) (3)
(§8) Herein, S denotes 7-(γ-L-glutamylamino)-4-methylcoumarin. The substrate concentration [S] for E-coli GGT is 0.2 μM and the Km value is 0.2 μM. […] The kinetic data was obtained by nonlinear regression analysis using Kaleida graph, a program produced by Synergy Software.
Further, in the discontinuous assay, an inhibitor in various concentrations was dissolved in 100 mM succinic acid-sodium hydroxide buffer solution (pH 5.5) and the enzyme solution was added to the resulting buffer solutions. […]

Data set [2] deals with T2, human GGT (Homo sapiens, UniProt P19440).
T2 construct: purchased Asahi Kasei Co., Ltd. HC-GTP (lot 603AA)
T2 sequence (P19440 1-380 limits assumed): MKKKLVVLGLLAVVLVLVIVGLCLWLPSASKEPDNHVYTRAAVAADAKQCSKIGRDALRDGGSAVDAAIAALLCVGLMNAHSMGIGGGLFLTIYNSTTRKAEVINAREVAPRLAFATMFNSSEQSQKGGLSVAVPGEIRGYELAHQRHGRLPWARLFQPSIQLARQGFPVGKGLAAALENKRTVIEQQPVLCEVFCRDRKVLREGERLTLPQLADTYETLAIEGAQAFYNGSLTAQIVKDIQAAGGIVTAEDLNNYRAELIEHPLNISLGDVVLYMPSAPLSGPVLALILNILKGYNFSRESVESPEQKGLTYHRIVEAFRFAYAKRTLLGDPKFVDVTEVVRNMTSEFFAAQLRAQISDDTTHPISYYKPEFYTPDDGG
T2 sequence (P19440 381-569 limits assumed): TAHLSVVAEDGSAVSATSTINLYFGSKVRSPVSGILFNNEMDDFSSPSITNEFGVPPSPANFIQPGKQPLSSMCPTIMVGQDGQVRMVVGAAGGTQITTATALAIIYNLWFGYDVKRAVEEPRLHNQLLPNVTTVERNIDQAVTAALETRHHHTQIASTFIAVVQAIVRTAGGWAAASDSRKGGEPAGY
Kind of data set: Second-order rate constant kon of human GGT inactivation (continuous or discontinuous assay). Type of data set: biochemical. Conditions: for kon Human GGT: second-order rate constant for enzyme inactivation, pH 5.5, 25° C.
Description: as §1
In the hydrolytic assay of human GGT, the measurement was carried out in the same manner as that in the hydrolytic assay of E-coli GGT, except that the substrate concentration was changed to […] and therefore, the explanation of the common portions was omitted.
as §2, §3, §4, §5, §6, §7, §8
Further, in the discontinuous assay, an inhibitor in various concentrations was dissolved in 100 mM succinic acid-sodium hydroxide buffer solution (pH 5.5) and the enzyme solution was added to the resulting buffer solutions. Herein, in the case of E-coli GGT, the enzyme solution was added in a manner that the final concentration became 0.4 nM and also the human GGT crude enzyme solution was added in a manner that the final concentration became 0.5 mg/mL. Accordingly, the reaction of the inhibitor and each GGT was conducted at 25° C. An aliquot (10 μL) of each of the reaction solutions were sampled at every specified time to measure the remaining enzyme activity by the above-mentioned enzyme activation method. The remaining enzyme activity at every time was analyzed by nonlinear regression using the pseudo-first-order rate equation (4) of enzyme inactivation to calculate the value of kobs.
[Equation 4] αt/α0=exp(−kobst) (4) […]

Data set [3] in a line: Hydrolysis ratio of Example 7 in alkaline, neutral or acidic solvent. Conditions: for Hydrolysis ratio (%): after 12 hours. It counts as physicochemical. On the procedure: Herein, the compound of Example 7 was dissolved in a solvent shown in Table 4 and kept at 23.5° C., and the hydrolysis ratio of the compound of Example 7 was measured after 12 hours.
A short description of data set [4]: Chemical stability: hydrolysis ratio after storage in water at room temperature. Conditions: stored in water at room temperature for 12 hours. It counts as physicochemical. On the procedure:
Herein, the hydrolysis ratios of the reactive compounds of Examples 1 to 11 were measured after the respective compounds were stored in water at room temperature. In this connection, the compounds other than the compound of Example 10 were stored in water for 12 hours and the compound of Example 10 was stored in water for 112 hours.

Data set [5] has as its system glutamine-dependent asparagine synthetase. As to the kind of experiment: Inhibition of glutamine-dependent asparagine synthetase. It counts as biochemical. Conditions: 10 mM compound, incubated for 2 hours. The text has this:
Therefore, the phosphonic acid diester derivative (1) specifically reacts on GGT.

For `COP(=O)(CCC(N)C(=O)O)Oc1ccc([N+](=O)[O-])cc1` (stereo not drawn) [Example 7, 2-amino-4-[methyl(4-nitrophenyl)phosphono]butanoic Acid], in data set [1], the “kon E-coli GGT” value stood at 35000 M^−1S^−1. For the same compound, the “kon Human GGT” value in data set [2] was found to be 125.1 M^−1S^−1. In addition, the “Hydrolysis ratio (%)” value is listed as 0% in data set [3] (0.1 N CF3COOD, pH <1, 23.5° C.); 40% in data set [3] (0.1 N CH3COOD, pH 2.9, 23.5° C.); 0% in data set [3] (0.1 N DCl + MeOH, pH <1, 23.5° C.); 0% in data set [3] (0.1 N DCl, pH <1, 23.5° C.); 100% in data set [3] (0.1 N Na2CO3, pH 11.6, 23.5° C.); 100% in data set [3] (0.1 N NaHCO3, pH 8.3, 23.5° C.). In addition, the “Hydrolysis ratio (%)” value in data set [3] (D2O, pH 7, 23.5° C.) turned out to be 49%; in data set [4], 48.6%. In addition, the “hydrolysis ratio in words” value is reported as “low” in data set [3] (under the acidic condition) and “high” in data set [3] (under the alkaline condition).
With `COP(=O)(CCC(N)C(=O)O)Oc1cccc(CC(=O)O)c1` (stereo not drawn) [Example 11, 2-amino-4-{[3-(carboxymethyl)phenyl](methyl)phosphono}butanoic Acid], the “kon E-coli GGT” value in data set [1] was found to be 150 M^−1S^−1. Also, the “plot of log kon (human GGT) against pKa of aryl group, FIG. 4” value in data set [2] (position relative to the straight line) is recorded as “deviate upward”. The “kon of human GGT inactivation relative to the compound of Example 12” value in data set [2] (ratio of kon 51 to kon 0.33) is reported as “about 155 times”. Further, the “kon Human GGT” value in data set [2] turned out to be 51 M^−1S^−1. Moreover, the “inhibition of the function of glutamine-dependent asparagine synthetase” value in data set [5] is “did not inhibit”. The “Hydrolysis ratio (%)” value in data set [4] came to 0%.
